# From patent publication US20030130180A1, “Utilization of an aminopeptidase inhibitor” (priority 2000, published 2003)
# Test system: Karpas cells
# Experiment: Detection of surface protein combinations of the protein network on untreated (V1) and actinonin-treated (V2) Karpas cells
# Type: cell-based
# Conditions: for V2 no. of cells / V2 no. of cells In 1/1OOO: actinonin-treated Karpas cells
# Source text: Principally, detecting of the surface protein combinations may comprise procedural steps of an automated method for determining molecular classes, molecular groups or molecular parts in a solid or liquid object according to DE 197 09 348 C. In these steps, surface proteins may be examined and measured in one and the same object, i.e. in a sample of immune cells and/or tumor cells for example, by sequentially applying reagent solutions Yn (n=1,2,3, . . . N) by means of an automated apparatus, said procedural steps being: I. taking a first reagent solution Y1 from a vessel containing the reagent solution, II. applying said reagent solution Y1 to the object which is on an object slide, III. allowing the reagent solution to react for an automatically set period of time, IV. recording at least one individual labeling pattern of the object previously labeled with said first reagent solution Y1, V. repeating steps I-IV by applying said first reagent solution Y1 or a second reagent solution Y2 or a mixture of said first and second reagent solutions, and VI. repeating steps I to V with further reagent solutions Yn (n=2,3, . . . N) or a mixture thereof and whereby the labeling distribution patterns obtained in each cycle of the method are turned into a complex molecular combination pattern of the object to be examined by computer-aided image overlay. From this combination pattern, information may be gained on the presence of the above mentioned proteins, thus also allowing detection of the surface protein combinations, if the reagent solutions used contain labeled substances directed against the proteins in question. In numerous examinations, it was possible to identify the 30 cell surface proteins already listed above which belong to a specific protein network controlling the early polarization stages of tumor cells and immune cells. In a further examination, surface protein combinations of this protein network of Karpas cells were detected, both in untreated form and after treatment with the aminopeptidase inhibitor actinonin. For this purpose, two groups V1 and V2 of Karpas cells were formed, with the cells of group Vl remaining untreated, while the cells of group V2 were treated with actinonin. Table 2 lists those surface protein combinations which are present both in the actinonin-treated cells and in the untreated cells. However, this table and the further tables 3 and 4 only give examples of 18 of the 30 proteins, with the detected proteins being designated 1 and the non-detected proteins being designated 0. The proteins are continuously numbered 1 to 18, with the nomenclature being notable from table 1. [table] The cell numbers stated in tables 2 to 4 refer to each 1,000 cells examined in groups V1 and V2. Table 3 lists the surface protein combinations which only occur in the untreated Karpas cells and are never found in the actinonin-treated Karpas cells. The number of protein combinations listed in this table 3 amounts to 131. Finally, table 4 exclusively lists those surface protein combinations which occur exclusively in the actinonin-treated Karpas cells. It may be gathered from tables 2 to 4 that, if one examines merely 18 proteins of the 30 proteins, a total of 394 different surface protein combinations will occur, with a total of 334 different combinations occurring in the untreated cells and a total of 263 different combinations being detected in the treated cells.
smiles,measurement,setting,value
CCCCC[C@H](CC(=O)NO)C(=O)N[C@H](C(=O)N1CCC[C@H]1CO)C(C)C [actinonin],V2 no. of cells,"protein code No. 54, proteins 1-18 binary 011000001100001100",1.5 1/1OOO
same,V2 no. of cells,"protein code No. 55, proteins 1-18 binary 001000010100001000",2.0 1/1OOO
same,V2 no. of cells,"protein code No. 57, proteins 1-18 binary 101100110111011000",2.4 1/1OOO
same,V2 no. of cells,"protein code No. 58 (first line so numbered), proteins 1-18 binary 001100011101001000",1.7 1/1OOO
same,V2 no. of cells,"protein code No. 58 (second line so numbered), proteins 1-18 binary 000000011101000000",2.9 1/1OOO
same,V2 no. of cells,"protein code No. 59, proteins 1-18 binary 101100010111001000",1.5 1/1OOO
same,V2 no. of cells,"protein code No. 60, proteins 1-18 binary 001000000101001000",1.5 1/1OOO
same,V2 no. of cells,"protein code No. 61, proteins 1-18 binary 000000010111001000",1.6 1/1OOO
same,V2 no. of cells,"protein code No. 62, proteins 1-18 binary 001000000001001000",0.6 1/1OOO
same,V2 no. of cells,"protein code No. 63, proteins 1-18 binary 000000010100001000",1.6 1/1OOO
same,V2 no. of cells,"protein code No. 64, proteins 1-18 binary 000000011001000000",2.1 1/1OOO
same,V2 no. of cells,"protein code No. 65, proteins 1-18 binary 000000000011000000",0.7 1/1OOO
same,V2 no. of cells,"protein code No. 66, proteins 1-18 binary 101000010101011000",1.0 1/1OOO
same,V2 no. of cells,"protein code No. 67, proteins 1-18 binary 001100011111011000",1.8 1/1OOO
same,V2 no. of cells,"protein code No. 68, proteins 1-18 binary 000000000010000000",0.1 1/1OOO
same,V2 no. of cells,"protein code No. 69, proteins 1-18 binary 001000000011000000",1.2 1/1OOO
same,V2 no. of cells,"protein code No. 70, proteins 1-18 binary 010000001100000100",1.5 1/1OOO
same,V2 no. of cells In 1/1OOO,"surface protein combination No. 93, binary code 011100011101001000",0.7 1/1OOO
same,V2 no. of cells In 1/1OOO,"surface protein combination No. 94, binary code 000000011000000000",1.0 1/1OOO
same,V2 no. of cells In 1/1OOO,"surface protein combination No. 95, binary code 000000001101000000",1.4 1/1OOO
same,V2 no. of cells In 1/1OOO,"surface protein combination No. 96, binary code 001100011101011000",0.3 1/1OOO
same,V2 no. of cells In 1/1OOO,"surface protein combination No. 97, binary code 011000011101001100",0.7 1/1OOO
same,V2 no. of cells In 1/1OOO,"surface protein combination No. 98, binary code 011000011100001100",0.9 1/1OOO
same,V2 no. of cells In 1/1OOO,"surface protein combination No. 99, binary code 000000011101001000",0.9 1/1OOO
same,V2 no. of cells In 1/1OOO,"surface protein combination No. 100, binary code 010000001000000000",0.3 1/1OOO
same,V2 no. of cells In 1/1OOO,"surface protein combination No. 101, binary code 010000011101000000",0.5 1/1OOO
same,V2 no. of cells In 1/1OOO,"surface protein combination No. 102, binary code 001100010101011100",0.6 1/1OOO
same,V2 no. of cells In 1/1OOO,"surface protein combination No. 103, binary code 011000011001000000",0.7 1/1OOO
same,V2 no. of cells In 1/1OOO,"surface protein combination No. 104, binary code 001000001001000000",0.8 1/1OOO
same,V2 no. of cells In 1/1OOO,"surface protein combination No. 105, binary code 000000010111000000",0.9 1/1OOO
same,V2 no. of cells In 1/1OOO,"surface protein combination No. 107, binary code 000100010001001000",0.2 1/1OOO
same,V2 no. of cells In 1/1OOO,"surface protein combination No. 109, binary code 000100000000000000",0.6 1/1OOO
same,V2 no. of cells In 1/1OOO,"surface protein combination No. 110, binary code 011000011111001000",0.8 1/1OOO
same,V2 no. of cells In 1/1OOO,"surface protein combination No. 111, binary code 001000000100000000",0.8 1/1OOO
same,V2 no. of cells In 1/1OOO,"surface protein combination No. 112, binary code 101000010111001000",0.2 1/1OOO
same,V2 no. of cells In 1/1OOO,"surface protein combination No. 113, binary code 011000011111011000",0.2 1/1OOO
same,V2 no. of cells In 1/1OOO,"surface protein combination No. 114, binary code 011000001100000000",0.2 1/1OOO
same,V2 no. of cells In 1/1OOO,"surface protein combination No. 115, binary code 001000000111001000",0.3 1/1OOO
same,V2 no. of cells In 1/1OOO,"surface protein combination No. 116, binary code 101100010101001000",0.6 1/1OOO
same,V2 no. of cells In 1/1OOO,"surface protein combination No. 117, binary code 101100010011011000",0.6 1/1OOO
same,V2 no. of cells In 1/1OOO,"surface protein combination No. 118, binary code 101100110111011100",0.7 1/1OOO
same,V2 no. of cells In 1/1OOO,"surface protein combination No. 119, binary code 000000010010000000",0.1 1/1OOO
same,V2 no. of cells In 1/1OOO,"surface protein combination No. 120, binary code 011100011111011000",0.2 1/1OOO
same,V2 no. of cells In 1/1OOO,"surface protein combination No. 121, binary code 001000011011001000",0.2 1/1OOO
same,V2 no. of cells In 1/1OOO,"surface protein combination No. 122, binary code 011000001100000100",0.3 1/1OOO
same,V2 no. of cells In 1/1OOO,"surface protein combination No. 123, binary code 000000001100001000",0.3 1/1OOO
same,V2 no. of cells In 1/1OOO,"surface protein combination No. 124, binary code 110000001100001100",0.5 1/1OOO
same,V2 no. of cells In 1/1OOO,"surface protein combination No. 125, binary code 010000011100001000",0.5 1/1OOO
same,V2 no. of cells In 1/1OOO,"surface protein combination No. 126, binary code 001000110111011000",0.5 1/1OOO
same,V2 no. of cells In 1/1OOO,"surface protein combination No. 127, binary code 001000011111000000",0.5 1/1OOO
same,V2 no. of cells In 1/1OOO,"surface protein combination No. 128, binary code 111000001100001100",0.7 1/1OOO
same,V2 no. of cells In 1/1OOO,"surface protein combination No. 129, binary code 011000011100001000",0.7 1/1OOO
same,V2 no. of cells In 1/1OOO,"surface protein combination No. 130, binary code 101100010101011100",0.2 1/1OOO
same,V2 no. of cells In 1/1OOO,"surface protein combination No. 131, binary code 101000010101001000",0.3 1/1OOO
same,V2 no. of cells In 1/1OOO,"surface protein combination No. 134, binary code 010000011100001100",0.5 1/1OOO
same,V2 no. of cells In 1/1OOO,"surface protein combination No. 135, binary code 010000011100000000",0.5 1/1OOO
same,V2 no. of cells In 1/1OOO,"surface protein combination No. 136, binary code 001100010101001100",0.5 1/1OOO
same,V2 no. of cells In 1/1OOO,"surface protein combination No. 137, binary code 001100000000001000",0.5 1/1OOO
same,V2 no. of cells In 1/1OOO,"surface protein combination No. 138, binary code 000000001001001000",0.6 1/1OOO
same,V2 no. of cells In 1/1OOO,"surface protein combination No. 139, binary code 011000001101000000",0.1 1/1OOO
same,V2 no. of cells In 1/1OOO,"surface protein combination No. 140, binary code 000000000011001000",0.1 1/1OOO
same,V2 no. of cells In 1/1OOO,"surface protein combination No. 141, binary code 101000010111011100",0.2 1/1OOO
same,V2 no. of cells In 1/1OOO,"surface protein combination No. 142, binary code 001100000101001000",0.2 1/1OOO
same,V2 no. of cells In 1/1OOO,"surface protein combination No. 143, binary code 011100011111001000",0.3 1/1OOO
same,V2 no. of cells In 1/1OOO,"surface protein combination No. 144, binary code 001100010111000000",0.3 1/1OOO
same,V2 no. of cells In 1/1OOO,"surface protein combination No. 145, binary code 001000000100001000",0.3 1/1OOO
same,V2 no. of cells In 1/1OOO,"surface protein combination No. 146, binary code 011000011001001000",0.5 1/1OOO
same,V2 no. of cells In 1/1OOO,"surface protein combination No. 147, binary code 111100011100011100",0.1 1/1OOO
same,V2 no. of cells In 1/1OOO,"surface protein combination No. 148, binary code 110000001100011100",0.1 1/1OOO
same,"V2 No. of cells In 1/1000, total",total over the 60 combinations occurring exclusively in actinonin-treated Karpas cells,9.1 1/1000
